In patent US6746673B2, “Pharmaceutical compositions containing anti-Fas antibody” (Sankyo Company, Limited, priority 1999, dated 2004):

Test system: Human lymphocyte cell stock HPB-ALL
Assay: XTT cell viability assay of apoptosis induction in HPB-ALL cells
Type: cell-based
Conditions: only methotrexate added, no anti-Fas antibody, FIG. 3
Procedure: Human lymphocyte cell stock HPB-ALL (cf. Morikawa, S., et al. (1978) Int. J. Cancer 21, 166-170) was cultured in RPMI 1640 medium containing 10% FCS (manufactured by Gibco B.R.L. Corporation) at 37° C., in the presence of 5% carbon dioxide gas for three days, and 50 μl of the culture (2.5×10^5 cells/50 μl) were dispensed into each well of a 96-well microplate (manufactured by Sumitomo Bakelite Co., Ltd.). Then, 50 μl of the RPMI medium containing methotrexate (manufactured by Sigma Chemical Company), and an anti-Fas antibody (CH11 or HFE7A, 0.001 mg/ml solution was serially diluted by three times) were added to each well, and was cultured at 37° C.
The cells in the plate to which CH11 was added as an anti-Fas antibody were kept to be cultured at 37° C. overnight. […] The plate was then incubated for 3 hours at 37° C., and the absorbance at 450 nm of each well was measured, to calculate cell viability, using the reducing power of the mitochondria as the index.
The viability of the cells in each well was calculated according to the following equation: […]
wherein “a” is the absorbance of a test well, “b” is the absorbance of a well with no cells and c is the absorbance of a well with no antibody added.

## CN(Cc1cnc2nc(N)nc(N)c2n1)c1ccc(C(=O)N[C@@H](CCC(=O)O)C(=O)O)cc1 [methotrexate, Methotrexate]
  viability of the cells: almost no change
